Test results from patent US20240239748A1, “NOVEL FORMS OF ENTINOSTAT” (Macfarlan Smith Limited, priority 2021, published 2024).
≈ marks a conversion by molar mass, not a printed value. Where two headings read alike, the source gives them in different places.

Experiments:
[1] = Protocol: XRPD diffractograms are collected on a Bruker D8 diffractometer using Cu Ka radiation (40 kV, 40 mA) and a 0-20 goniometer fitted with a Ge monochromator. The incident beam passes through a 2.0 mm divergence slit followed by a 0.2 mm anti-scatter slit and knife edge. The diffracted beam passes through an 8.0 mm receiving slit with 2.5° Soller slits followed by the Lynxeye Detector. The software used for data collection and analysis is Diffrac Plus XRD Commander and Diffrac Plus EVA respectively. Samples are run under ambient conditions as flat plate specimens using powder as received. The sample is prepared on a polished, zero-background (510) silicon wafer by gently pressing onto the flat surface or packed into a cut cavity. The sample is rotated in its own plane.
The details of the standard data collection method are: • Angular range: 2 to 42° 20 • Step size: 0.05° 20 • Collection time: 0.5 s/step (total collection time: 6.40 min)

[2] = 4 hour solubility in buffered media (HPLC quantitation); type: physicochemical; settings: thermodynamic from solid, 25° C.
Protocol: Sufficient sample is suspended in 1.0 ml media for a maximum anticipated concentration of about 10 mg/ml of the free form of the compound. The resulting suspensions are then shaken at 25° C./750 rpm for 4 hours. The pH of the sample solutions is checked after 1 hour to ensure that the desired pH is maintained throughout (+0.2). After equilibration, the appearance is noted, and the final pH of the saturated solution is measured. Samples are then filtered through a glass ‘C’ fibre filter (Particle retention size 1.2 μm), before dilution with buffer as appropriate. Quantitation is by HPLC with reference to a standard solution of approximately 0.15 mg/ml. Different volumes of the standard, diluted and undiluted sample solutions are injected.
The HPLC method for solubility measurements is as follows:
Analysis is performed on an Agilent HP1100/Infinity II 1260 series system equipped with a diode array detector and using OpenLAB software.

[3] = remark: listed apart in the source
Protocol: Sorption isotherms are obtained using a Hiden IGASorp moisture sorption analyser, controlled by Isochema HISorp software. The sample temperature is maintained at 25° C. by a Grant LT ecocool 150 re-circulating water bath. The humidity is controlled by mixing streams of dry and wet nitrogen, with a total flow rate of 250 ml/min. The relative humidity is measured by a calibrated Vaisala RH probe (dynamic range of 0-95% RH), located near the sample. The weight change, (mass relaxation) of the sample as a function of % RH is constantly monitored by the microbalance (accuracy±0.001 mg). Typically, 20-30 mg of sample is placed in a tared mesh stainless steel basket under ambient conditions. The sample is loaded and unloaded at 40% RH and 25° C.(typical room conditions). A moisture sorption isotherm is performed as outlined below (2 scans, giving 1 complete cycle). The standard isotherm is performed at 25° C. at 10% RH intervals over a 0-90% RH range.

## Nc1ccccc1NC(=O)c1ccc(CNC(=O)OCc2cccnc2)cc1.O=C(O)CCC(=O)O [Form B of entinostat compound with succinic acid]
[1]; 40° C./75% RH
  time the form remains stable, as evidenced by XRPD: at least 7 days

## Nc1ccccc1NC(=O)c1ccc(CNC(=O)OCc2cccnc2)cc1.O=C(O)C=CC(=O)O
[1]; 40° C./75% RH
  stability of crystalline form (no change in form by XRPD): stable at 40° C./75% RH for at least two weeks

## Nc1ccccc1NC(=O)c1ccc(CNC(=O)OCc2cccnc2)cc1 [U.S. Pat. No. 7,973,166 Polymorph A, N-(2-aminophenyl)-4-[N-(pyridine-3-yl)-methoxycarbonylamino-methyl]-benzamide]
[2]; aqueous buffer, pH 4.5 acetate buffer
  solubility at 4 h: 190 µg/mL (≈ 505 µM)
[2]; aqueous buffer, pH 6.8 phosphate buffer
  solubility at 4 h: 75 µg/mL (≈ 199 µM)
[2]; aqueous buffer, pH 7.5 phosphate buffer
  solubility at 4 h: 72 µg/mL (≈ 191 µM)
[2]; buffer pH 2.8, aqueous buffer, pH 2.8 buffer
  solubility at 4 h: 5900 µg/mL (≈ 15700 µM)
[2]; simulated gastric fluid, pH 1.2 hydrochloric acid buffer
  solubility at 4 h: > 7900 µg/mL

## Nc1ccccc1NC(=O)c1ccc(CNC(=O)OCc2cccnc2)cc1.O=C(O)CCC(=O)O [Form C of entinostat compound with succinic acid]
[1]; 40° C./75% RH
  time the form remains stable, as evidenced by XRPD: at least 7 days

## Nc1ccccc1NC(=O)c1ccc(CNC(=O)OCc2cccnc2)cc1.O=C(O)CCC(=O)O [Form A of entinostat compound with succinic acid]
[1]; 25° C./97% RH
  time the form remains stable, as evidenced by XRPD: at least 28 days
[1]; 40° C./75% RH
  time the form remains stable, as evidenced by XRPD: at least 28 days
[3]; 25° C., 0-90% RH
  reversible water uptake by GVS: ~0.5 wt %
[3]; after GVS cycle
  post GVS XRPD, change of crystalline form: no change in crystalline form
